According to ChEMBL document CHEMBL1130490, “The Role of 4-phosphonodifluoromethyl- and 4-phosphono-phenylalanine in the selectivity and cellular uptake of SH2 domain ligands” (Bioorg Med Chem Lett, 1997):
Where a SMILES comes first, the peptide text is derived from it. [ ]: non-standard residue; d: D form. pY = N[C@@H](Cc1ccc(OP(=O)(O)O)cc1)C(=O)O

Experiments:
[1] = species on record: Mus musculus; assay: Uptake rate for compound into Balbc3T3 cells normalized to 100 uM was measured; type: functional
[2] = target: T1, Tyrosine-protein kinase ABL1 (Homo sapiens, UniProt P00519); assay: Inhibition of [35S]-labeled SH2-GST Abl binding to the phospho-PDGF receptor intracellular domain
T1 sequence (P00519 whole entry, the tested form may be a part): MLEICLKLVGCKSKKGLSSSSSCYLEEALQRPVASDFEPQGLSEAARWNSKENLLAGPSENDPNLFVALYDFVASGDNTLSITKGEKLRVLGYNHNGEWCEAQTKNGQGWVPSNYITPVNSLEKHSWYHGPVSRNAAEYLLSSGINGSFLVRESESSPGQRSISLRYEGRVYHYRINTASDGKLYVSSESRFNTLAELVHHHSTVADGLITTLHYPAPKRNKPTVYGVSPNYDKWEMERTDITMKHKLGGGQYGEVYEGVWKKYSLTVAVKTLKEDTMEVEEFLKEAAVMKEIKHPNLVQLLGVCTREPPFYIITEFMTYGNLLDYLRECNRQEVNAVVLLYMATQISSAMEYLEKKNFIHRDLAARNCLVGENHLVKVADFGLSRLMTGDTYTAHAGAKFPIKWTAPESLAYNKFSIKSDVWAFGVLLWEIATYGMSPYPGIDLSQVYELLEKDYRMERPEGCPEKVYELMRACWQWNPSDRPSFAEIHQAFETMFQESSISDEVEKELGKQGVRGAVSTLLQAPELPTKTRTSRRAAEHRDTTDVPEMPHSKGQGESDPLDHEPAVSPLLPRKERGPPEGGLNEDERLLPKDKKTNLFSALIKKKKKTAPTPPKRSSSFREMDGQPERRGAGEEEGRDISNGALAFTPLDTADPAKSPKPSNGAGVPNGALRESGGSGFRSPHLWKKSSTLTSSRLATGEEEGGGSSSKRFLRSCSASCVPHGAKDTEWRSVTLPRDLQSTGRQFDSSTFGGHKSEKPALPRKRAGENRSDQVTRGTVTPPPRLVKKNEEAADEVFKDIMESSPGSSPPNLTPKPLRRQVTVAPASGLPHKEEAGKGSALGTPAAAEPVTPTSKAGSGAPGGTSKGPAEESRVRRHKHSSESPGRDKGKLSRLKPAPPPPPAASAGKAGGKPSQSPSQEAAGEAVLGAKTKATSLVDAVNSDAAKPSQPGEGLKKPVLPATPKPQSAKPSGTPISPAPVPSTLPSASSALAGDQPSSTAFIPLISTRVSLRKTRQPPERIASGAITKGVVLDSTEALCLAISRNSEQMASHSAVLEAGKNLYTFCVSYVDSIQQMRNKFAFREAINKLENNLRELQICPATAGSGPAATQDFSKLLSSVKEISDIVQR

[3] = target: T1, Tyrosine-protein kinase ABL1; assay: Radioligand displacement assay for the binding of [125I]Glu-Pro-Gln-pTyr-Glu-Glu-Ile-Pro-Ile-Tyr-Leu to ABL SH2 domain

| IC50 [2] [µM] | IC50 [3] [µM] | Compound | Uptake rate (nM min-1 cm**-2) [1] |
| --- | --- | --- | --- |
|  |  | CCOP(=O)(OCC)c1ccc(C[C@H](NC(C)=O)C(=O)N[C@@H](CC)C(=O)N(C)CCCC2CCCCC2)cc1 | 0.092 |
|  |  | CC[C@H](NC(=O)[C@H](Cc1ccc(P(=O)(OCOC(=O)C(C)(C)C)OCOC(=O)C(C)(C)C)cc1)NC(C)=O)C(=O)N(C)CCCC1CCCCC1 | 6.6 |
|  |  | CCOP(=O)(OCC)C(F)(F)c1ccc(C[C@H](NC(C)=O)C(=O)N[C@@H](CCC(=O)OC(C)(C)C)C(=O)N(C)CCCC2CCCCC2)cc1 | 3.2 |
|  |  | CCOP(=O)(OCC)C(F)(F)c1ccc(C[C@H](NC(C)=O)C(=O)N[C@@H](CCC(=O)O)C(=O)N(C)CCCC2CCCCC2)cc1 | > 0.002 |
| 15 | 7.9 | CC[C@H](C)[C@H](NC(=O)[C@H](CCC(=O)O)NC(=O)[C@H](CCC(=O)O)NC(=O)[C@H](Cc1ccc(OP(=O)(O)O)cc1)NC(C)=O)C(=O)N[C@@H](CCC(=O)O)C(=O)O (Ac-[pY]EEIE-OH) |  |
|  |  | CC[C@H](NC(=O)[C@H](Cc1ccc(C(F)(F)P(=O)(O)OCOC(=O)C(C)(C)C)cc1)NC(C)=O)C(=O)N(C)CCCC1CCCCC1 | 0.01 |
